Assay results reported in patent US7332501B2, “Indol-3-yl-carbonyl-spiro-piperidine derivatives as V1a receptor antagonists” (Hoffmann-La Roche Inc., priority 2005, dated 2008).
Where a name gives a salt, the structure may show the parent alone.

The compounds below were run against T1, human V1a receptor (Homo sapiens, UniProt P37288) (assay: human V1a receptor binding (3H-Vasopressin SPA, HEK293 membranes)). Conditions: displacement of 4 nM 3H-Vasopressin, membranes of HEK293 cells transiently transfected with human V1a receptor; Ki from IC50 by Cheng-Prussoff.
T1 construct: expressed in transfected cells; host or cells: HEK293 cells, transiently transfected; cell membranes
T1 sequence (P37288 whole entry): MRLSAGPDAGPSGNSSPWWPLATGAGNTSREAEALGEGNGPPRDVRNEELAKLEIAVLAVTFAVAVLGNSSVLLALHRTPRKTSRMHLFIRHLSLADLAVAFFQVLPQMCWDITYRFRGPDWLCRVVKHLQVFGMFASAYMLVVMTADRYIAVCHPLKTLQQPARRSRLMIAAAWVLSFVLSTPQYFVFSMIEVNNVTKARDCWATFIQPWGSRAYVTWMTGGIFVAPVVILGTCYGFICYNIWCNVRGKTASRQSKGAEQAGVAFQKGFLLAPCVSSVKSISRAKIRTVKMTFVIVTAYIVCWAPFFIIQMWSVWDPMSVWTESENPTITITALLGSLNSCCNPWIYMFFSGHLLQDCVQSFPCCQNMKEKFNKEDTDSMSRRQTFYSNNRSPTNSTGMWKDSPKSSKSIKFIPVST
How it was run: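 Ki derived by Cheng-Prusoff from IC50 curves normalised to specific binding. Serially diluted compounds (in 2% DMSO) competed with 3H-vasopressin (4 nM working solution) for 1 h at room temperature on SPA beads bearing membranes of transiently transfected HEK293 cells; unlabelled vasopressin defined non-specific counts.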

Compound	Ki
Cc1c(C(=O)N2CCC3(CC2)OCc2ccccc23)c2ccccc2n1Cc1ccc(C#N)cc1 [Example 51, 4-{[2-methyl-3-(1′H,3H-spiro[2-benzofuran-1,4′-piperidin]-1′-ylcarbonyl)-1H-indol-1-yl]methyl}benzonitrile]	5.9 nM
COCC1(Cn2cc(C(=O)N3CCC4(CC3)OC(=O)c3cc(F)ccc34)c3ccc(Cl)cc32)CC1 [Example 190, 1′-[(6-Chloro-1-{[1-(methoxymethyl)cyclopropyl]methyl}-1H-indol-3-yl)carbonyl]-5-fluoro-3H-spiro[2-benzofuran-1,4′-piperidin]-3-one]	2.6 nM
O=C(c1cn(CC2(F)COC2)c2cc(Cl)ccc12)N1CCC2(CC1)OCc1ccccc12 [Example 243, 1′-({6-Chloro-1-[(3-fluorooxetan-3-yl)methyl]-1H-indol-3-yl}carbonyl)-3H-spiro[2-benzofuran-1,4′-piperidine]]	1.4 nM
O=C(c1cn(C(=O)c2ccccc2F)c2cc(Cl)ccc12)N1CCC2(CC1)OCc1ccccc12 [Example 215]	8.6 nM
CNCCNC(=O)c1[nH]c2cc(Cl)ccc2c1C(=O)N1CCC2(CC1)OC(=O)c1cc(F)ccc12 [Example 194, 6-Chloro-3-[(5-fluoro-3-oxo-1′H,3H-spiro[2-benzofuran-1,4′-piperidin]-1′-yl)carbonyl]-N-[2-(methylamino)ethyl]-1H-indole-2-carboxamide hydrochloride]	15.1 nM
O=C(c1cn(C(=O)c2cc(F)cc(F)c2)c2cc(Cl)ccc12)N1CCC2(CC1)OCc1ccccc12 [Example 216]	3.5 nM
O=C(c1cn(CCCN2CCOCC2)c2cc(Cl)ccc12)N1CCC2(CC1)OCc1ccccc12 [Example 257, 1′-{[6-Chloro-1-(3-morpholin-4-ylpropyl)-1H-indol-3-yl]carbonyl}-3H-spiro[2-benzofuran-1,4′-piperidine]]	3.1 nM

Now from value to compound:

Ki	Compound
5.2 nM	Cn1cncc1Cn1cc(C(=O)N2CCC3(CC2)OC(=O)c2cc(F)ccc23)c2ccc(Cl)cc21 [Example 183, 1′-({6-Chloro-1-[(1-methyl-1H-imidazol-5-yl)methyl]-1H-indol-3-yl}carbonyl)-5-fluoro-3H-spiro[2-benzofuran-1,4′-piperidin]-3-one]
1.1 nM	O=C1OC2(CCN(C(=O)c3cn(CC(=O)N4CCOCC4)c4cc(Cl)ccc34)CC2)c2ccc(F)cc21 [Example 113, 1′-{[6-Chloro-1-(2-morpholin-4-yl-2-oxoethyl)-1H-indol-3-yl]carbonyl}-5-fluoro-3H-spiro[2-benzofuran-1,4′-piperidin]-3-one]
4.8 nM	O=C1OC2(CCN(C(=O)c3cn(Cc4cccc(F)c4)c4cc(Cl)ccc34)CC2)c2ccc(Br)cc21 [Example 151, 5-Bromo-1′-{[6-chloro-1-(3-fluorobenzyl)-1H-indol-3-yl]carbonyl}-3H-spiro[2-benzofuran-1,4′-piperidin]-3-one]
1.3 nM	O=C1OC2(CCN(C(=O)c3cn(CC(=O)N4CCCCC4)c4cc(Cl)ccc34)CC2)c2ccccc21 [Example 104, 1′-{[6-Chloro-1-(2-oxo-2-piperidin-1-ylethyl)-1H-indol-3-yl]carbonyl}-3H-spiro[2-benzofuran-1,4′-piperidin]-3-one]
2.9 nM	Cc1c(C(=O)N2CCC3(CC2)OCc2ccc(Cl)cc23)c2ccccc2n1Cc1ccccc1 [Example 40, 1′-[(1-benzyl-2-methyl-1H-indol-3-yl)carbonyl]-6-chloro-3H-spiro[2-benzofuran-1,4′-piperidine]]
10.6 nM	COC(=O)c1ccc(Cn2c(C)c(C(=O)N3CCC4(CC3)OCc3ccccc34)c3ccccc32)cc1 [Example 50, methyl 4-{[2-methyl-3-(1′H,3H-spiro[2-benzofuran-1,4′-piperidin]-1′-ylcarbonyl)-1H-indol-1-yl]methyl}benzoate]
